Structures are written as SMILES. Values after ≈ are worked out from the molar mass of the structure shown. Values joined by “and” are separate entries in the source; they are usually repeats but may differ in a detail not shown here. Equal entries are not always repeated. Active and inactive are the calls of the source. The calls are words filed in the database; no cut-off is given here.

Data set [1] relates to Staphylococcus aureus. Nature of the data set: Antibacterial activity against Staphylococcus aureus. It is filed as functional. Conditions: for MIC: read-out: MIC.
The subject of a further data set is A549. Put plainly: (§1) Cytotoxicity against human A549 cells. It is filed as toxicity, cell-based. To be noted: a549.
For data set [2], the system named is Pseudomonas aeruginosa. Put plainly: Antibacterial activity against Pseudomonas aeruginosa PAO1. It is filed as functional.
The test system of data set [3] is Escherichia coli. Put plainly: Antibacterial activity against Escherichia coli. Format: functional.
In data set [4] the test system is Escherichia coli. Put plainly: Antibacterial activity against wild type Escherichia coli harbouring pore. It is filed as functional.
Data set [5] deals with Escherichia coli. Nature of the data set: Antibacterial activity against […] Escherichia coli harbouring TolC-deficient mutant. Format: functional.
Data set [6] relates to Escherichia coli. Nature of the data set: Antibacterial activity against […] Escherichia coli harbouring TolC-deficient mutant with pore. Format: functional.
Data set [7] deals with Pseudomonas aeruginosa. Put plainly: Antibacterial activity against Pseudomonas aeruginosa PAO1 harbouring pore. It is filed as functional.
Data set [8] relates to Pseudomonas aeruginosa. Put plainly: Antibacterial activity against Pseudomonas aeruginosa PAO1 harbouring delta6 mutant with pore. Format: functional.
Data set [9] concerns Pseudomonas aeruginosa. Put plainly: Antibacterial activity against Pseudomonas aeruginosa PAO1 harbouring delta6 mutant. It is filed as functional.
Data set [10] is described as follows: as §1. It is filed as toxicity, cell-based. Conditions: A549 cells.
The test system of data set [11] is Staphylococcus aureus. Put plainly: Antibacterial activity against Staphylococcus aureus ATCC 25923. Format: functional.
The subject of data set [12] is Staphylococcus aureus. Put plainly: Bacteriostatic activity against Staphylococcus aureus ATCC 25923 at 4 times MIC by time kill assay. Format: functional, organism-based.
The subject of data set [13] is Staphylococcus aureus. Nature of the data set: Bactericidal activity against Staphylococcus aureus ATCC 25923 at 16 times MIC measured after 7 to 24 hrs by time kill assay. Format: functional, organism-based. Conditions: time 7-24 hrs.
Data set [14] concerns Staphylococcus aureus. Put plainly: Bacteriostatic activity against Staphylococcus aureus ATCC 25923 at MIC by time kill assay. Format: functional, organism-based.
The subject of data set [15] is Staphylococcus aureus. Nature of the data set: Antibacterial activity against Staphylococcus aureus ATCC 215. Format: functional.
Data set [16] concerns Staphylococcus aureus. Put plainly: Antibacterial activity against Staphylococcus aureus ATCC 216. It is filed as functional.
Data set [17] concerns Staphylococcus aureus. Put plainly: Antibacterial activity against Staphylococcus aureus ATCC 217. Format: functional.
In data set [18] the test system is Staphylococcus aureus. Put plainly: Antibacterial activity against Staphylococcus aureus ATCC 219. It is filed as functional.
Data set [19] concerns Staphylococcus aureus. Put plainly: Antibacterial activity against Staphylococcus aureus ATCC 223. It is filed as functional.
The test system of data set [20] is Staphylococcus aureus. Nature of the data set: Antibacterial activity against Staphylococcus aureus ATCC 701. It is filed as functional.
For data set [21], the system named is Staphylococcus aureus. Put plainly: Antibacterial activity against Staphylococcus aureus ATCC 711. It is filed as functional.
In data set [22] the test system is Staphylococcus aureus. Nature of the data set: Antibacterial activity against Staphylococcus aureus ATCC 716. It is filed as functional.
[23] abbreviates: Staphylococcus aureus, read-out: MIC80.

By MIC is commonly meant the least concentration at which growth counts as inhibited. Regarding `NCc1ccc2nc(N(CCCn3ccnc3)C(=O)c3ccco3)sc2c1`, in the data set with Staphylococcus aureus [1] (Staphylococcus aureus), the MIC was above 100 µM.
A word on the CC50: it is the concentration at which the toxic effect on the cells reaches its halfway point. In the case of `Cc1cc(Cl)cc2sc(N(CCCn3ccnc3)C(=O)C3CCCO3)nc12` (configuration not stated), the MIC with Staphylococcus aureus [1] (Staphylococcus aureus) was 13.2 µM (≈ 5.34 µg/mL). The CC50 in the data set on A549 came to 87.6 µM.
What is called MIC80 is the lowest concentration that inhibits either 80% of growth or 80% of the strains tested, depending on the study. For `Cc1cc(Cl)cc2sc(N(CC3CCC(N)CC3)C(=O)c3ccco3)nc12` (configuration not stated), the MIC80 against Staphylococcus aureus [1] was 29.6 µM (≈ 12 µg/mL); in the data set on Staphylococcus aureus [1] (setting [23]) it was 19.8 µM (≈ 8 µg/mL). Also, the MIC against Pseudomonas aeruginosa [2] is above 200 µM; against Escherichia coli [3], above 200 µM; with Escherichia coli [4], 100 µM (≈ 40.4 µg/mL); in the data set on Escherichia coli [5], 50 µM (≈ 20.2 µg/mL); in the data set with Escherichia coli [6], 25 µM (≈ 10.1 µg/mL); in the data set with Pseudomonas aeruginosa [7], above 200 µM. In the data set on Pseudomonas aeruginosa [8], this compound had an MIC of 12.5 µM (≈ 5.05 µg/mL).
For the compound `Cc1cc(C(=O)N(CCCn2ccnc2)c2nc3c(C)cc(Cl)cc3s2)oc1C`, in the data set with Staphylococcus aureus [1] (Staphylococcus aureus), the MIC turned out to be 3.9 µM (≈ 1.67 µg/mL). In addition, in the data set on A549, the CC50 was 52.1 µM.
As to `NCc1cccc2sc(N(CCCn3ccnc3)C(=O)c3ccco3)nc12`, the MIC with Staphylococcus aureus [1] (Staphylococcus aureus) is 66.7 µM (≈ 25.4 µg/mL); in the data set with Pseudomonas aeruginosa [2], above 200 µM; in the data set with Escherichia coli [3] it was above 200 µM; against Escherichia coli [4], above 200 µM; against Escherichia coli [5], 100 µM (≈ 38.1 µg/mL); in the data set on Escherichia coli [6], 100 µM (≈ 38.1 µg/mL). For the same compound, the MIC with Pseudomonas aeruginosa [7] is above 200 µM; in the data set with Pseudomonas aeruginosa [9], 100 µM (≈ 38.1 µg/mL); against Pseudomonas aeruginosa [8], 100 µM (≈ 38.1 µg/mL).
For `Cc1cc(Cl)cc2sc(N(CCCn3cc[n+](C)c3)C(=O)c3ccco3)nc12`, in the data set on Staphylococcus aureus [1], the MIC80 was 29.6 µM and 13.2 µM.
`Cc1cc(Cl)cc2sc(N(CCCn3ccnc3)CS(=O)(=O)c3ccco3)nc12`: the MIC80 with Staphylococcus aureus [1] (setting [23]) amounted to 3.9 µM (≈ 1.76 µg/mL). Moreover, the CC50 in data set [10] was 43.2 µM.
Consider `Cc1cc(Cl)cc2sc(N(CCCn3ccnc3)C(=O)c3ccoc3)nc12`, for which the MIC with Staphylococcus aureus [1] (Staphylococcus aureus) is 2.6 µM (≈ 1.04 µg/mL). It took 53.4 µM to reach half-maximal cytotoxicity with A549 (CC50).
`Cc1cc(Cl)cc2sc(N(CC3CCNCC3)C(=O)c3ccco3)nc12`: the MIC80 in the data set with Staphylococcus aureus [1] was 19.8 µM (≈ 7.72 µg/mL); with Staphylococcus aureus [1] (setting [23]), 13.2 µM (≈ 5.15 µg/mL). In addition, the MIC is above 200 µM in the data set on Pseudomonas aeruginosa [2]; 200 µM (≈ 78 µg/mL) against Escherichia coli [3]; 200 µM (≈ 78 µg/mL) against Escherichia coli [4]; 50 µM (≈ 19.5 µg/mL) in the data set on Escherichia coli [5]; 50 µM (≈ 19.5 µg/mL) against Escherichia coli [6]; above 200 µM in the data set on Pseudomonas aeruginosa [7]. Also, the MIC against Pseudomonas aeruginosa [9] and with Pseudomonas aeruginosa [8] was 25 µM (≈ 9.75 µg/mL) throughout.
In the case of `Cc1c(Cl)ccc2sc(N(CCCn3ccnc3)C(=O)c3ccco3)nc12`, the MIC in the data set on Staphylococcus aureus [1] (Staphylococcus aureus) was 2.6 µM (≈ 1.04 µg/mL). Besides, the CC50 in data set [10] turned out to be 27.4 µM.
Regarding `O=C(c1ccco1)N(CCCn1ccnc1)c1nc2c(F)cc(F)cc2s1`, in the data set with Staphylococcus aureus [1] (Staphylococcus aureus), the MIC was determined as 16.5 µM (≈ 6.41 µg/mL). The compound also registered a CC50 in data set [10] of 93.7 µM.
`Cc1cc(Cl)cc2sc(N(CCCn3ccnc3)Cc3ccccc3)nc12`: the MIC80 with Staphylococcus aureus [1] (setting [23]) is 5.9 µM (≈ 2.34 µg/mL). Besides, half-maximal cytotoxicity in data set [10] (CC50) was put at 33.3 µM. For the same compound, the MIC was above 200 µM in the data set with Pseudomonas aeruginosa [9] and 3.2 µM (≈ 1.27 µg/mL) with Pseudomonas aeruginosa [8].
`Cc1cc(Cl)cc2sc(N(CCCn3ccnc3)C(=O)C3CCC3)nc12`: the MIC in the data set on Staphylococcus aureus [1] (Staphylococcus aureus) worked out at 2.6 µM (≈ 1.01 µg/mL). The same compound returned a CC50 in the data set with A549 of 44.6 µM.
Turning to `O=C(O)c1cn(C2CC2)c2cc(N3CCNCC3)c(F)cc2c1=O` [CIPROFLOXACIN], the minimum inhibitory concentration (MIC) against Staphylococcus aureus [11] is below 0.9 µM.
As for `Cc1cc(Cl)cc2sc(N(CCCn3ccnc3)CS(=O)(=O)c3ccccc3)nc12`, in the data set on Staphylococcus aureus [1] (setting [23]), the MIC80 came to 2.6 µM (≈ 1.2 µg/mL). This compound gave a half-maximal cytotoxic concentration (CC50) in [10] of 23.3 µM.
For `CO[C@@H]1[C@@H](OC(N)=O)[C@@H](O)[C@H](Oc2ccc3c(O)c(NC(=O)c4ccc(O)c(CC=C(C)C)c4)c(=O)oc3c2C)OC1(C)C` [NOVOBIOCIN], the MIC against Pseudomonas aeruginosa [2] is above 512 µM; against Escherichia coli [4], 64 µM (≈ 39.2 µg/mL); with Escherichia coli [5], 1 µM (≈ 0.613 µg/mL); in the data set with Escherichia coli [6] it was 0.125 µM (≈ 0.0766 µg/mL); against Pseudomonas aeruginosa [9], 256 µM (≈ 157 µg/mL); with Pseudomonas aeruginosa [8] it was 4 µM (≈ 2.45 µg/mL).
On to `Cc1ccc(C(=O)N(CCCn2ccnc2)c2nc3c(C)cc(Cl)cc3s2)o1`, for which the MIC in the data set with Staphylococcus aureus [1] (Staphylococcus aureus) turned out to be 2.6 µM (≈ 1.08 µg/mL). The compound further had a CC50 in the data set with A549 of 35.2 µM.
Consider `Cc1cc(Cl)cc2sc(NCCCn3ccnc3)nc12`, for which the MIC with Staphylococcus aureus [1] (Staphylococcus aureus) is 19.8 µM (≈ 6.08 µg/mL). In data set [10], half-maximal cytotoxicity (CC50) was put at 111 µM.
As to `Cc1cc(Cl)cc2sc(N(CCCn3ccnc3)C(=O)C3CC3)nc12`, the outcome with Staphylococcus aureus [12], in the data set on Staphylococcus aureus [13] and with Staphylococcus aureus [14] was Active. Also, the MIC was 3.9 µM (≈ 1.46 µg/mL) in the data set on Staphylococcus aureus [1] (Staphylococcus aureus); 3.9 µM (≈ 1.46 µg/mL) in the data set with Staphylococcus aureus [11]; above 200 µM with Pseudomonas aeruginosa [2]; 14.8 µM (≈ 5.55 µg/mL) against Staphylococcus aureus [15]; 4.4 µM (≈ 1.65 µg/mL) in the data set on Staphylococcus aureus [16]; 14.8 µM (≈ 5.55 µg/mL) in the data set with Staphylococcus aureus [17]. Further, the MIC with Staphylococcus aureus [18] is 2.9 µM (≈ 1.09 µg/mL); in the data set on Staphylococcus aureus [19], 4.4 µM (≈ 1.65 µg/mL); in the data set with Staphylococcus aureus [20], 4.4 µM (≈ 1.65 µg/mL); against Staphylococcus aureus [21], 4.4 µM (≈ 1.65 µg/mL); in the data set with Staphylococcus aureus [22], 4.4 µM (≈ 1.65 µg/mL); against Escherichia coli [3], above 200 µM. Moreover, the MIC is 200 µM (≈ 75 µg/mL) against Escherichia coli [4]; below 0.2 µM with Escherichia coli [5]; below 0.2 µM with Escherichia coli [6]; above 200 µM with Pseudomonas aeruginosa [7]; 50 µM (≈ 18.7 µg/mL) against Pseudomonas aeruginosa [9]; 1.56 µM (≈ 0.585 µg/mL) with Pseudomonas aeruginosa [8].
